Here are results for 3 molecules from paper PMC5131915, “Platinum(II) Iodido Complexes of 7-Azaindoles with Significant Antiproliferative Effects: An Old Story Revisited with Unexpected Outcomes” (PLoS ONE, 2016).

Each structure is given as a SMILES string. Bounds are passed on as bounds.

Data set [1] has as its system human non-cancerous hepatocytes (Hep). Put plainly: In vitro cytotoxicity testing (MTT assay), hepatocytes. The format is cell-based. As to conditions: 24 h drug exposure, no recovery. The procedure:
(§1) A2780 ovarian carcinoma, A2780R cisplatin-resistant ovarian carcinoma, HOS osteosarcoma, G361 malignant melanoma, MCF7 breast carcinoma, A549 lung carcinoma, HeLa cervix carcinoma, 22Rv1 prostate carcinoma and Caco-2 colorectal carcinoma human cancer cell lines were purchased from the European Collection of Cell Cultures (ECACC), while the human non-cancerous hepatocytes (Hep) were supplied by Biopredic Intl. The cell lines were cultured, according to the suppliers`instructions, in RPMI-1640 medium supplemented with 10% of fetal calf serum, 1% of 2 mM glutamine, and 1% penicillin/streptomycin. All cell lines were grown as adherent monolayers at 37°C and 5% CO2 in a humidified atmosphere.
(§2) The cells were seeded to 96-well culture plates, pre-incubated in drug-free media at 37°C for 24 h and treated typically with the 0.01–50.0 μM solutions, prepared from the stock solutions by dilution with medium, for 24 h at 37°C. […] In parallel with compounds 1–8 and the reference drugs, the cells were also treated with vehicle (0.1% DMF in medium; negative control) and Triton X-100 (1%; positive control) to assess the minimal and maximal cell damage, respectively. The MTT assay was used to determine the cell viability; MTT = 3-(4,5-dimethylthiazol-2-yl)-2,5-diphenyltetrazolium bromide. A concentration of the formed dye was evaluated spectrophotometrically at 540 nm (TECAN, Schoeller Instruments LLC).
(§3) The data were expressed as the percentage of viability, where 100% and 0% represents the treatments with negative and positive controls, respectively. The data from the cancer cells were acquired from three independent experiments (conducted in triplicate) using cells from different passages. The resulting IC50 values (μM) were calculated from viability curves and the results are presented as arithmetic mean±SD.

For data set [2], the system named is A2780R cisplatin-resistant ovarian carcinoma cells. Nature of the data set: In vitro cytotoxicity testing (MTT assay), A2780R. The format is cell-based, human. As to conditions: for IC50: 24 h drug exposure, no recovery, MTT, read-out: IC50±SD, A2780R; for resistance factor (RF), IC50(A2780R)/IC50(A2780): 24 h IC50 values. The method, then:
All cell lines were grown as adherent monolayers at 37°C and 5% CO2 in a humidified atmosphere.
The MTT assay was used to determine the cell viability; MTT = 3-(4,5-dimethylthiazol-2-yl)-2,5-diphenyltetrazolium bromide. A concentration of the formed dye was evaluated spectrophotometrically at 540 nm (TECAN, Schoeller Instruments LLC).
as §3

A further data set deals with MCF7 cells. Nature of the data set: Cell cycle analysis (PI/RNase, flow cytometry), MCF7. Type of data set: cell-based, human. Particulars: MCF7, 24 h, IC50 concentration. Background: Flow cytometry measures light scatter and fluorescence of single cells or particles in a stream.
Another data set relates to HOS osteosarcoma cells. Put plainly: In vitro cytotoxicity testing (MTT assay), HOS. Particulars: for IC50: 24 h drug exposure, no recovery, MTT, read-out: IC50±SD, HOS; for selectivity factor IC50(Hep)/IC50(cancer cell line): HOS; for times more potent than cisplatin: HOS cell line. Type of data set: cell-based, human. The procedure: as §1, §2, §3
(Formazan colour is commonly taken as a measure of viable cells.)

The subject of a further data set is A2780 cells. Nature of the data set: Cell cycle analysis (PI/RNase, flow cytometry), A2780. Type of data set: cell-based, human. As to conditions: A2780, 24 h, IC50 concentration.
Data set [3] deals with 22Rv1 prostate carcinoma cells. Put plainly: In vitro cytotoxicity testing (MTT assay), 22Rv1. Type of data set: cell-based, human. As to conditions: 24 h drug exposure, no recovery, read-out: IC50±SD, 22Rv1. The procedure: as §1, §2, §3
Data set [4] relates to HeLa cervix carcinoma cells. Put plainly: In vitro cytotoxicity testing (MTT assay), HeLa. Type of data set: cell-based, human. Particulars: 24 h drug exposure, no recovery, read-out: IC50±SD, HeLa. The method, then: as §1, §2, §3
Data set [5] concerns caspase 3 (Cas-3), active form p17. Put plainly: Ex vivo Western blot of tumour tissues, cleaved caspase 3. The format is in vivo, mice. Particulars: pooled tumour samples.
Description: Frozen tumour samples were homogenized by a bench blender IKA DI25 (IKA-Werke, Germany) in the presence of a lysis buffer [cOmplete Protease Inhibitor Cocktail (Roche, Germany), 50 mM Tris-HCl pH 7.5, 1 mM EGTA, 1 mM EDTA, 1 mM sodium orthovanadate, 50 mM sodium fluoride, 5 mM sodium pyrophosphate, 270 mM sucrose, 0.5% (v/v) Triton X-100]. Subsequently, the blended samples were centrifuged at 9.000 g at 4°C for 15 min. The supernatants were collected and the protein concentration was measured by the Brandford’s method using the Brandford reagent (Amresco, USA) according to the manufacturer’s manual. The measured samples were stored at -80°C for the following experiments.
The expression of caspase 3, MCL-1, p53, and β-actin as loading control were evaluated by Western blot analysis and immunodetection. Lysates were mixed with a denaturing loading dye [250 mM Tris-HCl pH 6.8, 5% (v/v) β-mercaptoethanol, 10% (w/v) sodium dodecyl sulfate, 30% (v/v) glycerol, 0.04% (w/v) bromophenol blue], heated for 5 min at 70°C. […] The final protein amount was 50 μg per well. After protein separation in the gel, they were transferred on the Immun-Blot polyvinylidene difluoride membrane 0.2 μm (Bio-Rad, USA). Then, the membrane was blocked by 5% (w/v) BSA in TBST [10 mM Tris-HCl pH 7.5, 150 mM NaCl, 0.1% (v/v) Tween-20]. […] HRP was detected by Clarity Western ECL Substrate (Bio-Rad, USA) using chemiluminescent documentation system Syngene PXi-4 (UK).
Data set [6] has as its system L1210 mouse lymphocytic leukaemia cells. Put plainly: In vivo antitumour activity testing, L1210 lymphocytic leukaemia model. Also noted: species or system mice. As to conditions: i.p.; for percentage of mean survival time T/C / mean survival time ± SD / tolerability / signs of toxicity (e.g. weight loss): dose equimolar to cisplatin 2 mg/kg; for mean survival time ± SD: 10 days after implantation, control 17.4±1.6 days. The procedure:
The experimental animals used for in vivo antitumour testing were female DBA/2 SPF mice obtained from Charles Rivers Laboratories. The animals were housed in the Sealsafe NEXT—IVC Blue Line Housing System (Tecniplast, Italy) to ensure the best possible experimental conditions and eliminate the risk of possible intergroup cross-contamination, and kept in Plexiglas cages at constant temperature (22±1°C) and relative humidity of 55±5% for one-week adaptation period before the start of the experiment. All experimental procedures were performed according to the National Institute of Health (NIH) Guide for the Care and Use of Laboratory Animals. The protocol was approved by the Expert Committee on the Protection of Animals Against Cruelty at the University of Veterinary and Pharmaceutical Sciences Brno (Permit Number: 71/2013). The number of pharmacological interventions was limited to the necessary minimum in order to minimize the suffering of animals, which were observed regularly for the symptoms connected with the tumour progression. […] No animals had to be sacrificed due to the above mentioned criteria of humane treatment and no post-application deaths within the 2 hours after the application were observed during the experiment. […] The animal tissues for the ex vivo experiments and histological evaluations were taken post mortem, in case of surviving animals immediately after they were sacrificed by the lethal dose of carbon dioxide inhalation, immediately followed by the cervical dislocation.
The animals were monitored several times a day for the signs of tumour progression and distress development.

Data set [7] concerns G361 malignant melanoma cells. Nature of the data set: In vitro cytotoxicity testing (MTT assay), G361. The format is cell-based, human. Particulars: 24 h drug exposure, no recovery, read-out: IC50±SD, G361. The procedure:
as §1, §2, §3

The subject of a further data set is pUC19 plasmid dsDNA. Put plainly: Gel electrophoresis studies of interaction with pUC19 plasmid dsDNA. Also noted: species or system Escherichia coli. Particulars: 37°C, 24 h; for effect on electrophoretic mobility of pUC19 forms (SC, OC, L): 0.23-2.30 μM. The method, then: Supercoiled pUC19 plasmid dsDNA (2686 bp, 1750 kDa) was isolated from Escherichia coli TOP10F’ by QIAprep Spin Miniprep Kit (Qiagen, Germany). The concentration and purity of the isolated plasmid DNA were evaluated spectrophotometrically. Plasmid was dissolved in nuclease-free water and stored at –20°C.
2 μL of these solutions were added to 18 μL of the pUC19 plasmid DNA water solution (300 ng per reaction, corresponding to a concentration of 23 μM calculated for the base pairs) and the mixture was left to react in the final 10% DMF/90% water solution containing the final concentrations of the complexes of 2.30, 1.15 and 0.23 μM, corresponding to 0.10, 0.05 and 0.01 metal-to-base pair stoichiometry. In parallel, the experiment was performed on plasmid DNA in the 10% DMF/90% water solution and in water. The reaction mixtures were incubated at 37°C for 24 h. An electrophoretic mobility was evaluated by gel electrophoresis ([…], 3 h) performed on a 0.8% (w/v) agarose gel containing EtBr (2.0 mg/L (w/v)) at ambient temperature in Tris-acetate/EDTA buffer. The bands on the obtained electrophoretogram were detected by an MUV21-CP-02 gel scanner (Major Science) and analysed with AlphaEaseFC software (version 4.0.0.34, Alpha Innotech) in order to evaluate the relative percentages of the SC, OC and L forms. Each experiment was performed in triplicate.

Data set [8] relates to MCF7 breast carcinoma cells. Nature of the data set: In vitro cytotoxicity testing (MTT assay), MCF7. The format is cell-based, human. Particulars: 24 h drug exposure, no recovery, read-out: IC50±SD, MCF7. The procedure:
as §1, §2, §3

Description for A2780 cells: (§4) The A2780 and MCF7 cells (1.0 × 10^6 per well) were pre-incubated in a six-well plate for 24 h as described above. […] After 24 h, floating cells were collected and attached cells were harvested using trypsin/EDTA in PBS. Total cells were washed twice with PBS and fixed in 70% ethanol. Cells were re-suspended in PBS and DNA staining was achieved by a solution of propidium iodide (PI) supplemented with RNase A (30 min, 25°C, in the dark). […] The data were analysed using CytExpert™ software (Beckman Coulter).
Description for MCF7 cells: as §4

As a reminder, the IC50 is the concentration that gives 50% inhibition. As for `N.N.[Cl][Pt][Cl]` [Cisplatin, cisplatin, reference compound], the IC50 in [1] is > 75 µM; in data set [2], > 50 µM; in the data set on HOS osteosarcoma cells, 18.9 ± 1.7 µM; in [3], 26.9 ± 3.5 µM; in [4], 30.4 ± 11 µM; in data set [7], 5.3 ± 0.7 µM. The IC50 in [8] came to 17.9 ± 3.5 µM. For the same molecule, the figures for the G0/G1 population in the data set on MCF7 cells and with A2780 cells were 33.4±2.8% and 23.7±1.5%, respectively. Besides, the G2/M population in the data set on MCF7 cells is given as 38.2±1.9%; in the data set with A2780 cells, 23.0±2.2%. The S population in the data set with MCF7 cells came to 26.3±1.9%; with A2780 cells, 50.6±2.8%. The sub-G1 population with MCF7 cells is listed as 1.6±0.2%; in the data set with A2780 cells it was 2.0±0.2%. In [5], the “level of active form of Cas-3 in tumour tissue” value (“level” for short) is listed as “has not been observed”. In data set [6], the “percentage of mean survival time T/C” value came to 108%. For the same molecule, the “mean survival time ± SD” value in data set [6] was determined as 18.8 ± 2.4 days. This molecule also registered a maximum tolerated dose in data set [6] (mice) of 2 mg/kg. In the data set on pUC19 plasmid dsDNA, the “effect on electrophoretic mobility of pUC19 forms (SC, OC, L)” value (“effect on electrophoretic mobility” below) was “increase the electrophoretic mobility”.

With `Brc1cc[n+]([Pt-2]([I])([I])[n+]2ccc(Br)c3cc[nH]c32)c2[nH]ccc12` [Complex 6, cis-[Pt(4Braza)2I2]], it took 4.1 µM to reach half-maximal inhibition in [1] (IC50). In [2], the “resistance factor (RF), IC50(A2780R)/IC50(A2780)” value came out at 1.03 and the IC50 is 3.3 ± 0.4 µM. Further, in the data set on MCF7 cells, the G0/G1 population is listed as 73.9±4.6%, the G2/M population is recorded as 16.6±2.1%, the S population is 7.2±1.6% and the sub-G1 population is recorded as 1.5±0.4%. In the data set on HOS osteosarcoma cells, the IC50 is 0.4 ± 0.1 µM, the “selectivity factor IC50(Hep)/IC50(cancer cell line)” value is given as ~10 and the “times more potent than cisplatin” value is ≤ 47 times. Besides, in the data set on A2780 cells, the G0/G1 population stood at 51.5±3.2%, the G2/M population is 26.3±1.6%, the S population is listed as 17.5±0.9% and the sub-G1 population came out at 4.3±1.4%. Further, the IC50 in [3] turned out to be 3.8 ± 0.1 µM. For the same molecule, the IC50 in [4] is 3.8 ± 0.2 µM. In addition, the “level” value in [5] is “has not been observed”. For the same molecule, in [6], the “tolerability / signs of toxicity (e.g. weight loss)” value is “well-tolerated”, the “percentage of mean survival time T/C” value was found to be 99% and the “mean survival time ± SD” value was determined as 17.3 ± 2.1 days. The IC50 in [7] was 3.2 ± 0.2 µM. The “effect on electrophoretic mobility” value in the data set on pUC19 plasmid dsDNA was “did not significantly change the mobility”. Further, the IC50 in data set [8] turned out to be 1 ± 0.4 µM.

With `Cc1cc2c(Cl)cc[n+]([Pt-2]([I])([I])[n+]3ccc(Cl)c4cc(C)[nH]c43)c2[nH]1` [Complex 8, cis-[PtI2(2Me4Claza)2]], in data set [1], the IC50 was 9.5 µM. Besides, in [2], the “resistance factor (RF), IC50(A2780R)/IC50(A2780)” value is listed as 0.59 and the IC50 was determined as 1 ± 0.4 µM. In the data set with MCF7 cells, this molecule came in with a G0/G1 population of 64.5±3.3%, a G2/M population of 25.4±2.6%, a S population of 8.9±2.1% and a sub-G1 population of 1.2±0.4%. In the data set on HOS osteosarcoma cells, the IC50 turned out to be 0.7 ± 0.2 µM, the “selectivity factor IC50(Hep)/IC50(cancer cell line)” value was ~14 and the “times more potent than cisplatin” value is listed as ≤ 47 times. In the data set on A2780 cells, this molecule registered a G0/G1 population of 55.2±2.2%, a G2/M population of 23.9±2.3%, a S population of 18.3±1.3% and a sub-G1 population of 2.2±0.4%. Further, the IC50 in [3] was 3.5 ± 0.2 µM. Further, the IC50 in [4] stood at 3.8 ± 0.1 µM. The “level” value in data set [5] is reported as “dramatically increased”. In addition, in [6], the “tolerability / signs of toxicity (e.g. weight loss)” value is recorded as “well-tolerated”, the “percentage of mean survival time T/C” value was 109% and the “mean survival time ± SD” value was 19.0 ± 2.4 days. Also, the IC50 in data set [7] stood at 1.7 ± 1.3 µM. Besides, the “effect on electrophoretic mobility” value with pUC19 plasmid dsDNA is listed as “did not significantly change the mobility”. In addition, the “amount of damaged OC and linear (L) forms of pUC19 DNA” value with pUC19 plasmid dsDNA (concentration-dependent) is “visibly increased”. The IC50 in data set [8] came to 2.1 ± 1 µM.
